Key:
Format in all cases: in vivo
Anthonomus grandis = assay: B.1 Boll weevil (Anthonomus grandis), 96-well microtiter plate diet test; conditions: 120 h, egg and larval mortality, 5 days, read-out: mortality in comparison with untreated controls
Description: For evaluating control of boll weevil, the test unit consisted of 96-well-microtiter plates containing an insect diet and 5-10 A. grandis eggs.
The compounds were formulated using a solution containing 75% v/v water and 25% v/v DMSO. Different concentrations of formulated compounds were sprayed onto the insect diet at 5 μl, using a custom-built micro atomizer, at two replications.
After application, microtiter plates were incubated at about 25±1° C. and about 75±5% relative humidity for 5 days. Egg and larval mortality were then visually assessed.

Myzus persicae = assay: B.3 Green Peach Aphid (mixed life stages), systemic artificial diet test; conditions: 72 h, treated aphid diet, 3 days, read-out: mortality in comparison with untreated controls
Description: For evaluating control of Green Peach Aphid through systemic means the test unit consisted of 96-well-microtiter plates containing liquid artificial diet under an artificial membrane. The compounds were formulated using a solution containing 75% v/v water and 25% v/v DMSO. Different concentrations of formulated compounds were pipetted into the aphid diet, using a custom-built pipette, at two replications. After application, 5-8 adult aphids were placed on the artificial membrane inside the microtiter plate wells. The aphids were then allowed to suck on the treated aphid diet and incubated at about 23±1° C. and about 50±5% relative humidity for 3 days. Aphid mortality and fecundity was then visually assessed.

Heliothis virescens = assay: B.4 Tobacco Budworm, microtiter plate diet test; conditions: 120 h, egg and larval mortality, 5 days, read-out: mortality in comparison with untreated controls
Description: For evaluating control of Tobacco Budworm, the test unit consisted of 96-well-microtiter plates containing an insect diet and 15-25 H. virescens eggs. The compounds were formulated using a solution containing 75% v/v water and 25% v/v DMSO. Different concentrations of formulated compounds were sprayed onto the insect diet at 10 μl, using a custom-built micro atomizer, at two replications. After application, microtiter plates were incubated at about 28±1° C. and about 80±5% relative humidity for 5 days. Egg and larval mortality was then visually assessed.

Plutella xylostella = assay: B.6 Diamond Back Moth, cabbage leaf disc dip test; conditions: foliar, 3rd instar larvae, 72 hours after treatment, read-out: mortality in comparison with untreated controls
Description: The active compound was dissolved at the desired concentration in a mixture of 1:1 (vol:vol) distilled water:acetone. Surfactant (Kinetic) was added at a rate of 0.01% (vol/vol). The test solution was prepared at the day of use. Cabbage leaf discs (60 mm in diameter) were dipped in test solution and air-dried. Treated leaves were placed in petri dishes lined with moistened filter paper and inoculated with ten 3rd instar larvae. Mortality was recorded 72 hours after treatment. Feeding damages were also recorded using a scale of 0-100%.

Nezara viridula = assay: B.8 Green Soldier Stink Bug, soybean pod spray test; conditions: 120 h, late 3rd instar, after 5 days, read-out: mortality in comparison with untreated controls
Description: The active compound was dissolved at the desired concentration in a mixture of 1:1 (vol:vol) distilled water:aceteone. Surfactant (Kinetic) was added at a rate of 0.01% (vol/vol). The test solution was prepared at the day of use. Soybean pods were placed in 90×50 mm glass Petri dishes lined with moistened filter paper and inoculated with ten late 3rd instar N. viridula. Using a hand atomizer, an approximately 2 ml solution was sprayed into each Petri dish. Treated setup was kept at about 25-26° C. and relative humidity of about 65-70%. Percent mortality was recorded after 5 days.

Nephotettix virescens = assay: B.9 Rice Green Leafhopper, rice seedling spray test; conditions: adults, after 72 hours, read-out: mortality in comparison with untreated controls
Description: Four to five-week old rice seedlings with cut upper leaf portion were cleaned and washed 24 hours before spraying. The active compounds were formulated in 1:1 acetone:water (vol:vol), and 0.01% vol/vol surfactant (Kinetic) was added. Potted rice seedlings were sprayed with 5-6 ml test solution, air dried, covered with Mylar cages and inoculated with 10 adults. Treated rice plants were kept at about 28-29° C. and relative humidity of about 50-60%. Percent mortality was recorded after 72 hours.

Spodoptera eridania = assay: B.11 Southern Armyworm 2nd instar larvae, lima bean foliar spray test; conditions: 96 h, 4 days after treatment, read-out: mortality in comparison with untreated controls
Description: The active compounds were formulated by a Tecan liquid handler in 100% cyclohexanone as a 10′000 ppm solution supplied in tubes. The 10′000 ppm solution was serially diluted in 100% cyclohexanone to make interim solutions. These served as stock solutions for which final dilutions were made by the Tecan in 50% acetone:50% water (v/v) into 10 or 20 ml glass vials. A nonionic surfactant (Kinetic®) was included in the solution at a volume of 0.01% (v/v). The vials were then inserted into an automated electrostatic sprayer equipped with an atomizing nozzle for application to plants/insects. Lima bean plants (variety Sieva) were grown 2 plants to a pot and selected for treatment at the 1st true leaf stage. Test solutions were sprayed onto the foliage by an automated electrostatic plant sprayer equipped with an atomizing spray nozzle. The plants were dried in the sprayer fume hood and then removed from the sprayer. Each pot was placed into perforated plastic bags with a zip closure. Ten to 11 armyworm larvae were placed into the bag and the bags zipped closed. Test plants were maintained in a growth room at about 25° C. and about 20-40% relative humidity for 4 days, avoiding direct exposure to fluorescent light (14:10 light:dark photo-period) to prevent trapping of heat inside the bags. Mortality and reduced feeding were assessed 4 days after treatment, compared to untreated control plants.

Bemisia argentifolii = assay: B.12 Silverleaf Whitefly (adults), cotton plant spray test; conditions: 72 h, 3 days after treatment, read-out: mortality in comparison with untreated controls
Description: The active compounds were formulated by a Tecan liquid handler in 100% cyclohexanone as a 10,000-ppm solution supplied in tubes. The 10,000-ppm solution was serially diluted in 100% cyclohexanone to make interim solutions. These served as stock solutions for which final dilutions were made by the Tecan in 50% acetone:50% water (v/v) into 5 or 10 ml glass vials. A nonionic surfactant (Kinetic®) was included in the solution at a volume of 0.01% (v/v). The vials were then inserted into an automated electrostatic sprayer equipped with an atomizing nozzle for application to plants/insects. Cotton plants at the cotyledon stage (one plant per pot) were sprayed by an automated electrostatic plant sprayer equipped with an atomizing spray nozzle. The plants were dried in the sprayer fume hood and then removed from the sprayer. Each pot was placed into a plastic cup and about 10 to 12 whitefly adults (approximately 3-5 days old) were introduced. The insects were collected using an aspirator and a nontoxic Tygon® tubing connected to a barrier pipette tip. The tip, containing the collected insects, was then gently inserted into the soil containing the treated plant, allowing insects to crawl out of the tip to reach the foliage for feeding. Cups were covered with a reusable screened lid. Test plants were maintained in a growth room at about 25° C. and about 20-40% relative humidity for 3 days, avoiding direct exposure to fluorescent light (14:10 light:dark photoperiod) to prevent trapping of heat inside the cup. Mortality was assessed 3 days after treatment, compared to untreated control plants.

O=C(Nc1ncc(F)cc1F)c1cc(OC2=NOC(c3cc(Cl)c(F)c(Cl)c3)(C(F)(F)F)C2)ccc1Cl (centres unmarked) [II-8, 2-chloro-5-[[5-(3,5-dichloro-4-fluoro-phenyl)-5-(trifluoromethyl)-4H-isoxazol-3-yl]oxy]-N-(3,5-difluoro-2-pyridyl)benzamide]
≥ 75%: mortality at 2500 ppm (Anthonomus grandis) | mortality at 2500 ppm (Myzus persicae) | mortality at 2500 ppm (Heliothis virescens) | mortality at 300 ppm (Plutella xylostella) | mortality at 300 ppm (Nezara viridula) | mortality at 300 ppm (Nephotettix virescens) | mortality at 300 ppm (Spodoptera eridania) | mortality at 300 ppm (Bemisia argentifolii)
